Laboratory results published in PubChem BioAssay (NCI).
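Following 48 hours of exposure in 96-well plates, responses at five concentrations were used to interpolate endpoints linearly. At the TGI there is no net growth.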

Assays:
Assay in all cases: NCI tumour cell line growth inhibition, 48 h
[1] = tested on: UO-31 renal
[2] = tested on: HOP-18 NSCLC
[3] = tested on: SK-MEL-28 melanoma
[4] = tested on: NCI-H522 lung
[5] = tested on: SW-620 colon
[6] = tested on: SF-295 CNS
[7] = tested on: UACC-62 melanoma
[8] = tested on: SNB-78 CNS
[9] = tested on: SF-539 CNS
[10] = tested on: 786-0 renal
[11] = tested on: A498 renal
[12] = tested on: HOP-92 NSCLC
[13] = tested on: DMS 273 small cell lung
[14] = tested on: HCT-15 colon
[15] = tested on: LOX IMVI melanoma
[16] = tested on: LXFL 529 NSCLC
[17] = tested on: MALME-3M melanoma
[18] = tested on: M14 melanoma
[19] = tested on: CCRF-CEM leukemia
[20] = tested on: ACHN renal
[21] = tested on: HT29 colon
[22] = tested on: OVCAR-3 ovarian
[23] = tested on: A549 NSCLC
[24] = tested on: OVCAR-4 ovarian
[25] = tested on: SK-OV-3 ovarian
[26] = tested on: UACC-257 melanoma
[27] = tested on: HL-60(TB) leukemia
[28] = tested on: DLD-1 colon
[29] = tested on: SNB-19 CNS
[30] = tested on: SK-MEL-2 melanoma
[31] = tested on: SN12C renal
[32] = tested on: OVCAR-5 ovarian
[33] = tested on: TK-10 renal
[34] = tested on: U251 CNS
[35] = tested on: CAKI-1 renal
[36] = tested on: HOP-62 NSCLC
[37] = tested on: KM20L2 colon
[38] = tested on: RXF-631 renal
[39] = tested on: HCT-116 colon
[40] = tested on: M19-MEL melanoma
[41] = tested on: NCI-H460 lung
[42] = tested on: XF 498 CNS
[43] = tested on: SF-268 CNS
[44] = tested on: RXF 393 renal
[45] = tested on: OVCAR-8 ovarian
[46] = tested on: KM12 colon
[47] = tested on: COLO 205 colon
[48] = tested on: IGROV1 ovarian
[49] = tested on: SK-MEL-5 melanoma
[50] = tested on: SNB-75 CNS
[51] = tested on: K-562 leukemia
[52] = tested on: RPMI-8226 leukemia
[53] = tested on: DMS 114 small cell lung
[54] = tested on: EKVX NSCLC
[55] = tested on: NCI-H23 lung
[56] = tested on: MOLT-4 leukemia
[57] = tested on: NCI-H226 lung

Measured: TGI

O=c1[nH]cc(C(F)(C(F)(F)F)C(F)(F)F)c(=O)[nH]1
> 100 µM: all assays above
